Assay results as given in PMC6057649, “Development of NanoLuc-PEST expressing Leishmania mexicana as a new drug discovery tool for axenic- and intramacrophage-based assays” (PLoS Neglected Tropical Diseases, 2018).
Where “and” joins values, the source holds several entries; their conditions need not be identical. Identical values can stand only once. Like-named read-outs stand apart in the source and are kept apart here. Peptide text beside a SMILES is read from it. * marks the point of attachment. Cbz = O=C(OCc1ccccc1)*

What was measured:
[1] = system: NanoLuc-PEST expressing L. mexicana axenic amastigotes; assay: microbe, parasite or virus in culture; assay type: cell-based
[2] = system: L. mexicana NanoLuc-PEST intramacrophage amastigotes; assay: Bioluminescence-based intramacrophage assay in THP-1 infection model; assay type: cell-based; conditions: for EC50: read-out: EC50 against amastigotes, Intramacrophage; for EC90: read-out: EC90 against amastigotes, Intramacrophage
[3] = system: L. mexicana axenic amastigotes; parameters: method as in PMID 9087496; conditions: L. mexicana axenic amastigotes ref 47; read-out: Previous EC50, axenic amastigotes; cited from earlier work
[4] = system: NanoLuc-PEST expressing L. mexicana axenic amastigotes; assay: Fluorescence-based (AlamarBlue) viability assay, NanoLuc-PEST axenic amastigotes; conditions: Leishmania mexicana, 72 h
[5] = system: L. donovani axenic amastigotes; conditions: cited from earlier work
[6] = system: L. donovani intramacrophage amastigotes; conditions: cited from earlier work
THP-1 cell line = assay: Macrophage toxicity assay (PrestoBlue); conditions: read-out: THP1 EC50, PMA-differentiated THP-1 macrophages, 72 hours
[7] = system: NanoLuc-PEST-expressing L. mexicana promastigotes and axenic amastigotes; assay: Cycloheximide and proteasome (MG-132) assays on luciferase signal; assay type: cell-based; conditions: 5 μM, 6 hours
Method: Detection of NanoLuc and NanoLuc-PEST enzymes was performed using the lytic Nano-Glo Assay (Promega), according to the manufacturer’s instructions. Detection of PRE9 was performed using either the Firefly Luciferase Glow Assay (Pierce), or the Bright-Glow Assay (Promega). Bioluminescence was measured using the Promega GloMax Multi Detection System. All data was normalised by subtracting bioluminescence values for the untransformed, parental line, and all assays done in triplicate.
Cycloheximide assays were performed over 8 hours. Cells were seeded to a cell density of 5 x10^5 cells/well (100 μL/well). Cycloheximide (Sigma) was added to each well to a final concentration of 100 μM and incubated with cells for a range of time points between 0 and 8 hours. Bioluminescence was measured as described above, and the half-life of each luciferase was calculated by one phase decay non-linear regression (GraphPad Prism 6.0). Proteosome assays were performed using the method above with the addition of 5 μM MG-132 (Sigma) for 6 hours. Statistical significance was determined using a paired, two-tailed T-test (GraphPad Prism 6.0).

MRC5 = system: MRC5; parameters: method as in MMV Pathogen Box website; conditions: ref MMV Pathogen Box website; cited from earlier work
HepG2 = conditions: ref MMV Pathogen Box website, cited from earlier work; for CC50: read-out: HepG2 CC50
[8] = system: Leishmania spp. intramacrophage amastigotes; conditions: value in brackets ref 55, read-out: Previous EC50, intramacrophage amastigotes; cited from earlier work
[9] = system: wild-type L. mexicana axenic amastigotes; assay: Fluorescence-based (AlamarBlue) viability assay, parental axenic amastigotes; conditions: Leishmania mexicana, 72 h
[10] = Leishmania mexicana, 72 h; read-out: EC50
[11] = Leishmania mexicana; 2 µM compound, 72 hours, relative to DMSO only control, n = 4; read-out: Relative Bioluminescence (%)
[12] = Leishmania mexicana; 10 µM compound, 72 hours, relative to DMSO only control, n = 4; read-out: Relative Bioluminescence (%)
[13] = Leishmania mexicana; read-out: EC50 against amastigotes, Axenic
[14] = Leishmania mexicana; read-out: EC90 against amastigotes, Axenic
[15] = 2 µM compound, 72 hours, relative to DMSO only control, n = 4
[16] = 10 µM compound, 72 hours, relative to DMSO only control, n = 4
[17] = hit compounds from the axenic amastigote screen, S3 Table; read-out: EC50, Axenic Amastigotes
[18] = read-out: EC50 against amastigotes, Axenic
[19] = read-out: EC90 against amastigotes, Axenic
[20] = THP-1 infection model, bioluminescence

C[C@@H]1[C@H](O)[C@@H](C)/C=C/C=C/C=C/C=C/C=C/C=C/C=C/[C@H](O[C@@H]2O[C@H](C)[C@@H](O)[C@H](N)[C@@H]2O)C[C@@H]2O[C@](O)(C[C@@H](O)C[C@@H](O)[C@H](O)CC[C@@H](O)C[C@@H](O)CC(=O)O[C@H]1C)C[C@H](O)[C@H]2C(=O)O [Amphotericin B, reference compound]
EC50 [1, 10]: 200 nM | viability at 2 µM [1, 11]: 58.3% | viability at 10 µM [1, 12]: 48.4% | EC50 ([1]; Leishmania mexicana; axenic amastigotes; span over parental and transgenic line, both bioluminescence- and fluorescence-based assays; read-out: EC50 values from the parental and transgenic line): 200 to 270 nM | EC50 [1, 13]: 201 nM | EC90 [1, 14]: 279 nM | decrease of bioluminescent signal [2]: ≥ 99% | EC50 ([2]; Leishmania mexicana, THP-1): 105 nM | EC90 ([2]; Leishmania mexicana, THP-1): 185 nM | EC50 [3]: 300 nM and 303 nM | EC50 [4]: 270 nM

CCN(CC)S(=O)(=O)c1ccc(C(=O)Nc2cc(C)nn2-c2nc(C)c(C)c(=O)[nH]2)cc1 [MMV595321]
Relative Bioluminescence (%) [1, 15]: -4.54% | Relative Bioluminescence (%) [1, 16]: -3.10% | EC50 [1, 17]: 150 nM | EC50 [1, 18]: 153 nM | EC90 [1, 19]: 357 nM | EC50 [2, 20]: 5300 nM | EC90 [2, 20]: 11200 nM | EC50 ([5]; value in brackets ref 49, 53, read-out: Previous EC50, axenic amastigotes): 501 nM | EC50 ([6]; value in brackets ref 49, 53, read-out: Previous EC50, intramacrophage amastigotes): 3160 nM | EC50 (THP-1 cell line): > 50000 nM

CC(C)C[C@@H](C=O)NC(=O)[C@H](CC(C)C)NC(=O)[C@H](CC(C)C)NC(=O)OCc1ccccc1 [MG-132] (Cbz-Leu-Leu-Leu-aldehyde)
bioluminescence relative to the DMSO control [7]: statistically significant increase

O=C(Nc1ccc2c(c1)B(O)OC2)c1ccccc1C(F)(F)F [MMV652003]
Relative Bioluminescence (%) [1, 15]: -1.53% | Relative Bioluminescence (%) [1, 16]: -1.54% | EC50 [1, 17]: 70 nM | EC50 [1, 18]: 77 nM | EC90 [1, 19]: 104 nM | EC50 [2, 20]: 3640 nM | EC90 [2, 20]: 10700 nM | CC50 (MRC5): > 32000 nM | HepG2 CC20 (HepG2): 400 nM

Cc1ccc(NC(=O)c2nc[nH]c2C(=O)Nc2nc3ccccc3[nH]2)c(C)c1 [MMV011903]
Relative Bioluminescence (%) [1, 15]: -0.43% | Relative Bioluminescence (%) [1, 16]: -1.14% | EC50 [1, 17]: 180 nM | EC50 [1, 18]: 189 nM | EC90 [1, 19]: 320 nM | EC50 [2, 20]: 2020 nM | EC90 [2, 20]: 2290 nM | CC50 (HepG2): > 10000 nM | HepG2 CC20 (HepG2): 8400 nM | EC50 (THP-1 cell line): > 50000 nM

COc1ccc(Oc2ccc([C@@H](C)N(C)c3ncc4c(N)nc(N)nc4n3)cc2)cc1 [MMV690102]
Relative Bioluminescence (%) [1, 15]: -5.29% | Relative Bioluminescence (%) [1, 16]: -1.34% | EC50 [1, 18]: 60 nM | EC90 [1, 19]: 123 nM | EC50 [2, 20]: 107 nM | EC90 [2, 20]: 160 nM | EC50 ([5]; value in brackets ref 49–51, read-out: Previous EC50, axenic amastigotes): 40 nM | EC50 ([6]; value in brackets ref 49–51, read-out: Previous EC50, intramacrophage amastigotes): 100 nM | CC50 (MRC5): 5400 nM

CCCCCCCCCCCCCCCCOP(=O)([O-])OCC[N+](C)(C)C [Miltefosine, reference compound]
EC50 [1, 10]: 2190 nM | EC50 ([1]; Leishmania mexicana, read-out: EC50 against amastigotes, Axenic): 1990 nM | viability at 2 µM [1, 11]: 43% | viability at 10 µM [1, 12]: 11.5% | EC90 [1, 14]: 19800 nM | EC50 ([2]; Leishmania mexicana, THP-1): 10900 nM | EC90 ([2]; Leishmania mexicana, THP-1): 37300 nM | EC50 [8]: 15700 nM | EC50 [9]: 1110 nM | EC50 [4]: 1990 nM

C[C@]1(COc2ccc(N3CCC(Oc4ccc(OC(F)(F)F)cc4)CC3)cc2)Cn2cc([N+](=O)[O-])nc2O1 [MMV688262, Delamanid, reference compound]
viability at 2 µM [1, 11]: -4.37% | viability at 10 µM [1, 12]: -2.71% | EC50 ([1]; Leishmania mexicana; hit compounds from the axenic amastigote screen, S3 Table; read-out: EC50, Axenic Amastigotes): 30 nM | EC50 [1, 13]: 33 nM | EC90 [1, 14]: 112 nM | EC50 ([2]; Leishmania mexicana, THP-1): 1780 nM | EC90 ([2]; Leishmania mexicana, THP-1): 25100 nM | EC50 ([5]; value in brackets ref 54, read-out: Previous EC50, axenic amastigotes): 5 nM | EC50 ([6]; value in brackets ref 54, read-out: Previous EC50, intramacrophage amastigotes): 86.5 to 298 nM | CC50 (HepG2): 72500 nM

CC[C@@H]([C@H](C)O)n1ncn(-c2ccc(N3CCN(c4ccc(OC[C@@H]5CO[C@@](Cn6cncn6)(c6ccc(F)cc6F)C5)cc4)CC3)cc2)c1=O [MMV688774, Posaconazole, reference compound]
viability at 2 µM [1, 11]: 31.3% | viability at 10 µM [1, 12]: -1.25%

c1cncc(NCc2ccc(-c3cc4ccncc4cc3OC3CCNCC3)s2)c1 [MMV023969]
Relative Bioluminescence (%) [1, 15]: 76.39% | Relative Bioluminescence (%) [1, 16]: 74.16%

COc1cccc(CC(=O)N2CCC(n3c(C)nc4ccc(F)cc43)CC2)c1 [MMV020081]
Relative Bioluminescence (%) [1, 15]: 98.78% | Relative Bioluminescence (%) [1, 16]: 73.47%

COc1ccc(Nc2ccccc2NC(=O)c2ccc(=O)[nH]c2)cc1 [MMV676554]
Relative Bioluminescence (%) [1, 15]: 97.83% | Relative Bioluminescence (%) [1, 16]: 103.74%

COc1ccc(Cl)cc1NC(=O)CN(C)C(=O)c1cnn(-c2ccccc2)n1 [MMV020710]
Relative Bioluminescence (%) [1, 15]: 102.08% | Relative Bioluminescence (%) [1, 16]: 128.98%

Cc1[nH]c2ccccc2c1C(c1cccs1)N1CCN(C)CC1 (stereo not shown) [MMV688768]
Relative Bioluminescence (%) [1, 15]: 75.96% | Relative Bioluminescence (%) [1, 16]: -1.33%

CCOC(=O)c1c(NC(=O)c2c(F)c(F)c(F)c(F)c2F)sc(C(N)=O)c1C [MMV153413]
Relative Bioluminescence (%) [1, 15]: 4.50% | Relative Bioluminescence (%) [1, 16]: 0.97% | EC50 [1, 17]: 520 nM
